Results on 3 compounds are retold here after patent US20180344758A1, “Method of Treating Cancer with cGAMP or cGAsMP” (LIPOGEN LLC, priority 2014, published 2018).

For experiment [1], the system named is IFN-β. The experiment is described as follows: IFN-β ELISA of THP1 culture supernatant. As to conditions: for IFN-β levels in the culture supernatant by ELISA, response: THP1 cells (FIG. 3B); for IFN-β production: THP1 cells (FIGS. 13A-B). A general note: ELISA stands for enzyme-linked immunosorbent assay.
Text: (§1) To confirm that cGAMP can induce the expression of IFN-β, we stimulated human monocytes THP1 blue cells with cGAMP and other three cyclic dinucleotides added to the culture media.
Experiment [2] has as its system IFN-β reporter. The experiment is described as follows: IFN-β reporter assay in THP1 blue cells. Conditions: for inducing the expression of IFN-β reporter: THP1 blue cells, cyclic dinucleotides added to the culture media (FIG. 3A). In general terms: A reporter such as luciferase makes a cellular process visible.
Text: as §1
Experiment [3] has as its system IFN-β in control cell lines. Kind of experiment: IFN-β induction in control cell lines. As to conditions: two control cell lines tested (FIG. 7).
In experiment [4] the test system is neuronal cancer cell line SF539. Kind of experiment: MTT assay, SF539. On the technique in general: Tetrazolium assays rely on reduction of a dye to a coloured formazan, in cell work by metabolically active cells.
Experimental: (§2) MTT solution: 5 mg/mL Thiazolyl Blue Tetrazolium Bromide (MTT) in PBS. The solution was filter sterilized after adding MTT and stored at −20° C.; MTT solvent: 4 mM HCl, 0.1% Nondet P-40 (NP40) in isopropanol. cGAMP or cGAsMP solutions: 10-30 mg/ml in PBS, filter sterilized using a 0.2 μm filter. • B. MTT Assay for Attaching Cancer Cell Lines SF539, U251, A498, and ACHN
On day one, one T-25 flask was trypsinized and 5 ml of complete media was added to the cells. The cells and media were centrifuged in a sterile 15 ml falcon tube at 300×g rcf in the swinging bucket rotor for 5 min. […] Cells were counted and recorded per ml. Cells were diluted (cv=cv) to 75,000 cells per ml with complete RPMI media. 100 μl of cells (7500 total cells) were added into each well of a 96 well plate and incubated overnight. 24 hours later, 100 μl of medium or cGAMP or cGAsMP solutions were added to each well. On the fifth day, 20 μl of 5 mg/ml MTT were added to each well. One set of wells with MTT but no cells served as a control. All steps were done aseptically. The wells were incubated for 3.5 hours at 37° C. in a CO2 incubator. Media was carefully removed, taking care not to disturb the cells. No PBS rinse was performed. 150 μl MTT solvent was added. The plate was covered with foil and cells agitated on orbital shaker for 15 min. The absorbance was measured at 590 nm using a plate reader. Each assay was repeated five times. • C.
The subject of experiment [5] is leukemia cell line CCRF-CEM. Kind of experiment: MTT assay, CCRF-CEM. Conditions: control leukemia cell line (FIG. 8). The format is cell-based, human.
For experiment [6], the system named is renal cancer cell line A498. Kind of experiment: MTT assay, A498. As to conditions: FIG. 6B.
Experimental: as §2
On day one, one T-25 flask was trypsinized and 5 ml of complete media was added to the cells. The cells and media were centrifuged in a sterile 15 ml falcon tube at 300×g rcf in the swinging bucket rotor for 5 min. […] Cells were counted and recorded per ml. Cells were diluted (cv=cv) to 75,000 cells per ml with complete RPMI media. 100 μl of cells (7500 total cells) were added into each well of a 96 well plate and incubated overnight. 24 hours later, 100 μl of medium or cGAMP or cGAsMP solutions were added to each well. On the fifth day, 20 μl of 5 mg/ml MTT were added to each well. One set of wells with MTT but no cells served as a control. All steps were done aseptically. The wells were incubated for 3.5 hours at 37° C. in a CO2 incubator. Media was carefully removed, taking care not to disturb the cells. No PBS rinse was performed. 150 μl MTT solvent was added. The plate was covered with foil and cells agitated on orbital shaker for 15 min. The absorbance was measured at 590 nm using a plate reader. […]
Experiment [7] has as its system genome-wide gene expression. The experiment is described as follows: Microarray analysis of gene expression in THP1 cells. Conditions: 20 μg/ml, 4 hours and 8 hours post treatment (FIG. 5).
Experiment [8] relates to IFN-β. As to conditions: intravenous (i.v.) injection, 100 μg/mice, sera ELISA (FIG. 3C).
Text: FIG. 3C is an IFN-β ELISA of sera from mice injected with cGAMP.
In experiment [9] the test system is IFN-β in renal cancer cell line A498. The experiment is described as follows: IFN-β induction in A498. Conditions: FIG. 7A.
Experiment [10] has as its system leukemia cell line SR. Kind of experiment: MTT assay, SR. The format is cell-based, human.
Experiment [11] deals with IFN-β in CNS cancer cell line SF539. The experiment is described as follows: IFN-β induction in SF539. Conditions: FIG. 7B.
The test system of experiment [12] is CNS cancer cell line SF539. The experiment is described as follows: NCI60 antitumor screen, SF539. Conditions: single dose of 10 μM.
For experiment [13], the system named is renal cancer cell line A498. The experiment is described as follows: NCI60 antitumor screen, A498. Conditions: single dose of 10 μM.
The test system of experiment [14] is cytokines and chemokines. The experiment is described as follows: Multiplex cytokine assays in THP1 cells.
The test system of experiment [15] is NF-κB. The experiment is described as follows: NF-κB reporter assays.
For experiment [16], the system named is leukemia cell line SR. Kind of experiment: NCI60 antitumor screen, SR. Conditions: single dose of 10 μM.
Experiment [17] relates to MMTV-BALB-neuT mouse mammary tumors. Kind of experiment: MMTV-BALB-neuT spontaneous breast cancer model. Conditions: 0.1 mg per mouse intra-tumor once a day for three days; day 4 post-treatment; p value of 0.0009 (FIG. 15D).
Experimental: Comparisons were made between vehicle (veh.) and cGAMP treatment. The tumor growth was monitored for 4 days and growth rate was examined using serial caliper measurements. The tumor volume was calculated using the equation (a×b^2)/2 where “a” and “b” are length and width of the tumor, respectively. At the completion of the experiments, tumors were excised and statistical significance of differences in tumor volume was analyzed.

In the case of `Nc1nc2c(ncn2[C@@H]2O[C@@H]3COP(=O)(O)O[C@H]4[C@@H](O)[C@H](n5cnc6c(N)ncnc65)O[C@@H]4COP(=O)(O)O[C@H]3[C@H]2O)c(=O)[nH]1` [3′,5′ cGAMP, reference compound], the “IFN-β levels in the culture supernatant by ELISA, response” value in experiment [1] is given as “much weaker”. Moreover, the “inducing the expression of IFN-β reporter” value in [2] was “lower activity”.

As for `Nc1nc2c(ncn2[C@@H]2O[C@@H]3COP(=O)(O)O[C@H]4[C@@H](O)[C@H](n5cnc6c(N)ncnc65)O[C@@H]4COP(=O)(O)O[C@@H]2[C@@H]3O)c(=O)[nH]1` [cGAMP, 2′,5′ cGAMP], the entries for the “induction of IFN-β” value in experiment [3], in experiment [9] and in experiment [11] were “quite low”, “induces IFN-β” and “induces IFN-β”, respectively. Also, the “growth suppression, MTT” value in experiment [4] (FIG. 6A) and in [6] was “suppresses the growth” throughout. The “antitumor activity, MTT” value in experiment [4] (FIG. 14A) and in experiment [10] (FIG. 14B) was “have antitumor activity” throughout. Also, the “IFN-β levels in the culture supernatant by ELISA, response” value in [1] is “rapid responses”. The IFN-β production result in experiment [1] is listed as “can induce”. In addition, the “time at which induction of IFN-β peaked” value in experiment [1] (THP1 cells, ELISA (FIG. 3B)) is 8-10 hours post stimulation. Further, the “inducing the expression of IFN-β reporter” value in experiment [2] is recorded as “very potent”. The “response of cell line to treatment, MTT” value is “did not respond” in [5] and “responds strongly” in experiment [10] (FIG. 8A (cGAMP), FIG. 8B (IFN-β)). In experiment [7], the “number of genes up-regulated” value is “over 200 genes”. The “induction of IFN-β in mice” value in experiment [8] was “rapid responses”. For the same compound, the growth inhibition entry in experiment [12], in experiment [13] and in [16] was “effectively inhibited the growth” throughout. The “expression of IL-1β” value in [14] (THP1 cell) is recorded as “does not up-regulate”. In experiment [14] (THP1 cell (FIG. 4)), the “expression of IL-8, TNF-α, GROα, IP-10, MCP-1, MCP-2, and RANTES” value is reported as “up-regulation”. Further, in [15], the “activation of NF-κB” value is “stimulate the activation of NF-κB”. Further, the “tumor growth and tumor size” value in experiment [17] was “effective for both reducing tumor growth and reducing tumor size”.

Turning to `Nc1nc2c(ncn2C2OC3COP(=O)(O)OC4C(COP(O)(=S)OC2C3O)OC(n2cnc3c(N)ncnc32)C4O)c(=O)[nH]1` (stereo not shown) [cGAsMP, 2′5′-cGAsMP], the “antitumor activity, MTT” value in [4] (FIG. 14A) and in experiment [10] (FIG. 14B) was “have antitumor activity” throughout. The “impact on cell viability compared with cGAMP” value in [4] (FIG. 14A) and in [10] (FIG. 14B) was “generally a bigger impact on cell viability at lower concentrations” in each case. Moreover, in experiment [1], the IFN-β production result was “can induce”. The “IFN-β levels relative to cGAMP” value in experiment [1] (THP1 cells, 5 and 25 μg/ml, ELISA (FIG. 13A)) is 5-10 times. Also, the “potency in inducing IFN-β reporter gene expression, compared” value in [2] (THP1 cells, 0.2 to 25 μg/ml (FIG. 13B)) was “more potent than cGAMP”.
